# Patent publication US9969742B2, “Imidazotriazinone compounds” (Ironwood Pharmaceuticals, Inc., priority 2012, dated 2018)
# Like-named read-outs stand apart in the source and are kept apart here.
# Tests used:
# Type in all cases: biochemical
# PDE9A2 = molecular target: T1, PDE9A2 (Homo sapiens, UniProt O76083); assay: Phosphodiesterase enzyme screening assay, PDE9A2
# T1 construct: purchased Reaction Biology Corporation, Malvern, Pa
# In short: (§1)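 Human PDE isoforms were incubated 1 h at room temperature with 4.0 μM fluorescent cGMP substrate in 100 mM HEPES pH 7.5, 5 mM MgCl2, 1 mM DTT, 0.003% Brij. EDTA stop buffer ended reactions, and substrate and 5′-GMP product were separated by microfluidic electrophoretic mobility shift with laser-induced fluorescence. Inhibition was calculated against control wells.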
# PDE1A = molecular target: T2, PDE1A (Homo sapiens, UniProt P54750); assay: Phosphodiesterase enzyme screening assay, PDE1A
# T2 construct: purchased Reaction Biology Corporation, Malvern, Pa
# T2 sequence (P54750 whole entry): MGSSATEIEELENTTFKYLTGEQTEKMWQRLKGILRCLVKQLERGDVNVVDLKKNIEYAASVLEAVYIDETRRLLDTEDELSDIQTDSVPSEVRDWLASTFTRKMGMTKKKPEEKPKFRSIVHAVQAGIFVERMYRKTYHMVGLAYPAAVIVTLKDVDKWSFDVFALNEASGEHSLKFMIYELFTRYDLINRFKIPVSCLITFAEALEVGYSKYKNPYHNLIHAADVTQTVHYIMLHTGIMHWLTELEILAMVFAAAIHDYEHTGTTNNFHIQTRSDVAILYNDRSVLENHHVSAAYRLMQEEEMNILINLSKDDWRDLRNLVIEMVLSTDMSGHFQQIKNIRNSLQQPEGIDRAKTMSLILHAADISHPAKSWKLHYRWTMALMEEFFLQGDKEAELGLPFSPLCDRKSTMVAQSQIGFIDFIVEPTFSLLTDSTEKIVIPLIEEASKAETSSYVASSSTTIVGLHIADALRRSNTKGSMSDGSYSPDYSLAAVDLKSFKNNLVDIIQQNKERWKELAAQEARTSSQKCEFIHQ
# In short: as §1
# PDE1B = molecular target: T3, PDE1B (Homo sapiens, UniProt Q01064); assay: Phosphodiesterase enzyme screening assay, PDE1B
# T3 construct: purchased Reaction Biology Corporation, Malvern, Pa
# T3 sequence (Q01064 whole entry): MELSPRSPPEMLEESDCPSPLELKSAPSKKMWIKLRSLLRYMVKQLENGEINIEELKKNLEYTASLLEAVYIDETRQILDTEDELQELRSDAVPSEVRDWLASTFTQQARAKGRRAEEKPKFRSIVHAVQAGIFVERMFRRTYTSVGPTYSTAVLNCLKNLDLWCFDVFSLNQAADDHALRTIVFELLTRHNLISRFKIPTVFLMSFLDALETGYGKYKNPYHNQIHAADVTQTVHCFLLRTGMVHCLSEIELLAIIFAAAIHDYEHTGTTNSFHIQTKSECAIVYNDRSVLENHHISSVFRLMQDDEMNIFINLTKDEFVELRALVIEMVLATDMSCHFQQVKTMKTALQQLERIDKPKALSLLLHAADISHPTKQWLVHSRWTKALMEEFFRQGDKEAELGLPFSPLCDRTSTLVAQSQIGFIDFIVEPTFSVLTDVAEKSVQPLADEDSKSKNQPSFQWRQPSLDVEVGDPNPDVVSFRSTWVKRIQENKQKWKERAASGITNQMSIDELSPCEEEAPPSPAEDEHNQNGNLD
# In short: as §1
# [1] = ratio of IC50 values, PDE1A versus PDE9A2, value greater than 1 indicates greater selectivity for PDE9A2
# [2] = ratio of IC50 values, PDE1B versus PDE9A2, value greater than 1 indicates greater selectivity for PDE9A2
# [3] = 4.0 μM cGMP substrate, 1 hour at R.T., read-out: Band (PDE9A2 IC50)
# [4] = ratio of IC50 values PDE1A / PDE9A2, value greater than 1 = greater selectivity for PDE9A2
# [5] = ratio of IC50 values PDE1B / PDE9A2, value greater than 1 = greater selectivity for PDE9A2
# [6] = ratio of IC50 values, value greater than 1 indicates greater selectivity for PDE9A2
# [7] = Table 1, 10 concentrations, 4.0 μM cGMP substrate, 1 hour at R.T., read-out: Band (PDE9A2 IC50)
# [8] = Table 1, ratio of IC50 values, value greater than 1 indicates greater selectivity for PDE9A2
# T1 sequence (O76083 1-533 isoform O76083-2): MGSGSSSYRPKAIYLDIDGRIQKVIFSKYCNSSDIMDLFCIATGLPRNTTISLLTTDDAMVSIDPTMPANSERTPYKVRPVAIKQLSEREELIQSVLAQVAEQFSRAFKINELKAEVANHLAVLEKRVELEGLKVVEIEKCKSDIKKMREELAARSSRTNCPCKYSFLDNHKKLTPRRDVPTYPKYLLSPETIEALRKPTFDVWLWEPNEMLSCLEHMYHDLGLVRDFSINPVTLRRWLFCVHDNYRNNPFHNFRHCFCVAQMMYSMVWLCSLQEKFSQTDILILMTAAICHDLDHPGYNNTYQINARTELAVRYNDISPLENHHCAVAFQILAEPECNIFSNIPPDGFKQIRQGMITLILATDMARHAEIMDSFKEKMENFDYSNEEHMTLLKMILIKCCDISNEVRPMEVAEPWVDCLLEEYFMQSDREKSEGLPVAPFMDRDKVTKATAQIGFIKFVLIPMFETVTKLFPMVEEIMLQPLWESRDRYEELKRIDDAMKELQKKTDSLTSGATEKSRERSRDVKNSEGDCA
Compound,IC50 (PDE9A2; read-out: Band (PDE9A2 IC50)) [nM],IC50 (PDE9A2; [7]) [nM],PDE1A selectivity (versus PDE9A2) (PDE1A; [8]),PDE1B selectivity (versus PDE9A2) (PDE1B; [8]),also measured
"CC1CN(Cc2nc3ccccn3n2)CC1c1nn2c(-c3cccc(F)c3)ncc2c(=O)[nH]1 (single isomer, unassigned; (+)) [(+)-2-((3,4-trans)-1-([1,2,4]triazolo[1,5-a]pyridin-2-ylmethyl)-4-methylpyrrolidin-3-yl)-7-(3-fluorophenyl)imidazo[5,1-f][1,2,4]triazin-4(3H)-one]",< 1000,,,,PDE1A selectivity (versus PDE9A2) (PDE1A; [1]): 3; PDE1B selectivity (versus PDE9A2) (PDE1B; [2]): 10
"Cc1ncccc1CN1CC(C)C(c2nn3c(C4CCOCC4)ncc3c(=O)[nH]2)C1 (single isomer, unassigned; (+)) [(+)-2-((3,4-trans)-4-methyl-1-((2-methylpyridin-3-yl)methyl)pyrrolidin-3-yl)-7-(tetrahydro-2H-pyran-4-yl)imidazo[5,1-f][1,2,4]triazin-4(3H)-one]",,,,,IC50 (PDE9A2; [3]): < 1000 nM; PDE1A selectivity (versus PDE9A2) (PDE1A; [4]): 139; PDE1B selectivity (versus PDE9A2) (PDE1B; [5]): 201
"CC1CN(Cc2ccccc2)CC1c1nn2c(-c3ccccc3)ncc2c(=O)[nH]1 (single isomer, unassigned; (+)) [(+)-2-((3,4-trans)-1-benzyl-4-methylpyrrolidin-3-yl)-7-phenylimidazo[5,1-f][1,2,4]triazin-4(3H)-one]",< 1000,,,,PDE1A selectivity (versus PDE9A2) (PDE1A; [1]): 4; PDE1B selectivity (versus PDE9A2) (PDE1B; [2]): 12
"COc1ccc(CN2CC(C)C(c3nn4c(C5CCOCC5)ncc4c(=O)[nH]3)C2)nc1 (single isomer, unassigned; (+)) [(+)-2-((3,4-trans)-1-((5-methoxypyridin-2-yl)methyl)-4-methylpyrrolidin-3-yl)-7-(tetrahydro-2H-pyran-4-yl)imidazo[5,1-f][1,2,4]triazin-4(3H)-one]",< 1000,,,,PDE1A selectivity (versus PDE9A2) (PDE1A; [6]): 216; PDE1B selectivity (versus PDE9A2) (PDE1B; [6]): 540
"CC1CN(Cc2ccc(Cl)c(F)c2)CC1c1nn2c(C3CCOCC3)ncc2c(=O)[nH]1 (single isomer, unassigned; (+)) [(+)-2-((3,4-trans)-1-(4-chloro-3-fluorobenzyl)-4-methylpyrrolidin-3-yl)-7-(tetrahydro-2H-pyran-4-yl)imidazo[5,1-f][1,2,4]triazin-4(3H)-one]",,< 1000,3575,6575,
"Cc1cc(F)c(F)cc1-c1ncc2c(=O)[nH]c(C3CN(Cc4ccc(F)cc4)CC3C)nn12 (single isomer, unassigned; (+)) [(+)-7-(4,5-difluoro-2-methylphenyl)-2-((3,4-trans)-1-(4-fluorobenzyl)-4-methylpyrrolidin-3-yl)imidazo[5,1-f][1,2,4]triazin-4(3H)-one]",< 1000,,,,PDE1A selectivity (versus PDE9A2) (PDE1A; [1]): 232; PDE1B selectivity (versus PDE9A2) (PDE1B; [2]): 179
"CC1CN(Cc2cccc(-n3cccn3)c2)CC1c1nn2c(C3CCOCC3)ncc2c(=O)[nH]1 (single isomer, unassigned; (+)) [(+)-2-((3,4-trans)-1-(3-(1H-pyrazol-1-yl)benzyl)-4-methylpyrrolidin-3-yl)-7-(tetrahydro-2H-pyran-4-yl)imidazo[5,1-f][1,2,4]triazin-4(3H)-one]",,< 1000,612,1490,
"CC1CN(Cc2ccc3ncccc3c2)CC1c1nn2c(C3CCOCC3)ncc2c(=O)[nH]1 (single isomer, unassigned; (+)) [(+)-2-((3,4-trans)-4-methyl-1-(quinolin-6-ylmethyl)pyrrolidin-3-yl)-7-(tetrahydro-2H-pyran-4-yl)imidazo[5,1-f][1,2,4]triazin-4(3H)-one]",,< 1000,520,1525,
"COc1cncc(CN2CC(C)C(c3nn4c(C5CCOCC5)ncc4c(=O)[nH]3)C2)c1 (single isomer, unassigned; (+)) [(+)-2-((3,4-trans)-1-((5-methoxypyridin-3-yl)methyl)-4-methylpyrrolidin-3-yl)-7-(tetrahydro-2H-pyran-4-yl)imidazo[5,1-f][1,2,4]triazin-4(3H)-one]",,,,,IC50 (PDE9A2; [3]): < 1000 nM; PDE1A selectivity (versus PDE9A2) (PDE1A; [4]): 1060; PDE1B selectivity (versus PDE9A2) (PDE1B; [5]): 1780
"CC1CN(Cc2ccsc2)CC1c1nn2c(C3CCOCC3)ncc2c(=O)[nH]1 (single isomer, unassigned; (+)) [(+)-2-((3,4-trans)-4-methyl-1-(thiophen-3-ylmethyl)pyrrolidin-3-yl)-7-(tetrahydro-2H-pyran-4-yl)imidazo[5,1-f][1,2,4]triazin-4(3H)-one]",,,,,"IC50 (PDE9A2; Table 3, 4.0 μM cGMP substrate, 1 hour at R.T., read-out: Band (PDE9A2 IC50)): < 1000 nM; PDE1A selectivity (versus PDE9A2) (PDE1A; ratio of IC50 values, PDE1A versus PDE9A2, value greater than 1 = greater selectivity for PDE9A2): 176; PDE1B selectivity (versus PDE9A2) (PDE1B; ratio of IC50 values, PDE1B versus PDE9A2, value greater than 1 = greater selectivity for PDE9A2): 209"
"CC1CN(CC2CCOCC2)CC1c1nn2c(C3CCOCC3)ncc2c(=O)[nH]1 (single isomer, unassigned; (+)) [(+)-2-((3,4-trans)-4-methyl-1-((tetrahydro-2H-pyran-4-yl)methyl)pyrrolidin-3-yl)-7-(tetrahydro-2H-pyran-4-yl)imidazo[5,1-f][1,2,4]triazin-4(3H)-one]",< 1000,,,,PDE1A selectivity (versus PDE9A2) (PDE1A; [6]): 77; PDE1B selectivity (versus PDE9A2) (PDE1B; [6]): 93
"CC1CN(Cc2ccc(C(F)(F)F)nc2)CC1c1nn2c(C3CCOCC3)ncc2c(=O)[nH]1 (single isomer, unassigned; (+)) [(+)-2-((3,4-trans)-4-methyl-1-((6-(trifluoromethyl)pyridin-3-yl)methyl)pyrrolidin-3-yl)-7-(tetrahydro-2H-pyran-4-yl)imidazo[5,1-f][1,2,4]triazin-4(3H)-one]",,< 1000,333,980,
"CC1CN(Cc2ccc(Br)cc2)CC1c1nn2c(C3CCOCC3)ncc2c(=O)[nH]1 (single isomer, unassigned; (+)) [(+)-2-((3,4-trans)-1-(4-bromobenzyl)-4-methylpyrrolidin-3-yl)-7-(tetrahydro-2H-pyran-4-yl)imidazo[5,1-f][1,2,4]triazin-4(3H)-one]",,< 1000,476,1105,
"CC1CN(Cc2cccc(N(C)C)c2)CC1c1nn2c(C3CCOCC3)ncc2c(=O)[nH]1 (single isomer, unassigned; (+)) [(+)-2-((3,4-trans)-1-(3-(dimethylamino)benzyl)-4-methylpyrrolidin-3-yl)-7-(tetrahydro-2H-pyran-4-yl)imidazo[5,1-f][1,2,4]triazin-4(3H)-one]",,< 1000,680,923,
"CC1CN(Cc2ccccc2C2CC2)CC1c1nn2c(C3CCOCC3)ncc2c(=O)[nH]1 (single isomer, unassigned; (-)) [(−)-2-((3,4-trans)-1-(2-cyclopropylbenzyl)-4-methylpyrrolidin-3-yl)-7-(tetrahydro-2H-pyran-4-yl)imidazo[5,1-f][1,2,4]triazin-4(3H)-one]",,< 1000,685,505,
"Cc1cc(F)ccc1-c1ncc2c(=O)[nH]c(C3CN(Cc4ccccn4)CC3C)nn12 (single isomer, unassigned; (+)) [(+)-7-(4-fluoro-2-methylphenyl)-2-((3,4-trans)-4-methyl-1-(pyridin-2-ylmethyl)pyrrolidin-3-yl)imidazo[5,1-f][1,2,4]triazin-4(3H)-one]",,,,,"IC50 (PDE9A2; IC50 band, 4.0 μM cGMP substrate, 1 hour at R.T.): < 1000 nM; PDE1A selectivity (versus PDE9A2) (PDE1A; ratio of IC50 values PDE1A vs PDE9A2, value greater than 1 indicates greater selectivity for PDE9A2): 5780; PDE1B selectivity (versus PDE9A2) (PDE1B; ratio of IC50 values PDE1B vs PDE9A2, value greater than 1 indicates greater selectivity for PDE9A2): 374"
